Data published in publication PMC2996484 (Journal of neurochemistry, 2010).

What was measured:
WT D1DAR = WT D1DAR (Rattus norvegicus, UniProt P18901); experiment: cAMP accumulation assay, HEK293T cells expressing WT D1DAR; format: cell-based; conditions: 1 μM PMA 30 min or 3 μM Gö6983 1 hr
PKC-null D1DAR = PKC-null D1DAR (Rattus norvegicus, UniProt P18901, S259A/S397A/S398A/S417A/S421A); experiment: cAMP accumulation assay, HEK293T cells expressing PKC-null D1DAR; format: cell-based; conditions: 1 μM PMA 30 min or 3 μM Gö6983 1 hr
[1] = tested on: PKC phosphorylation of the D1DAR; experiment: In situ phosphorylation assay, HEK293T cells expressing the D1DAR; format: cell-based, rat; conditions: cells treated 30 min with 1 μM phorbol ester, Fig. 1A

WT D1DAR, sequence (P18901 whole entry): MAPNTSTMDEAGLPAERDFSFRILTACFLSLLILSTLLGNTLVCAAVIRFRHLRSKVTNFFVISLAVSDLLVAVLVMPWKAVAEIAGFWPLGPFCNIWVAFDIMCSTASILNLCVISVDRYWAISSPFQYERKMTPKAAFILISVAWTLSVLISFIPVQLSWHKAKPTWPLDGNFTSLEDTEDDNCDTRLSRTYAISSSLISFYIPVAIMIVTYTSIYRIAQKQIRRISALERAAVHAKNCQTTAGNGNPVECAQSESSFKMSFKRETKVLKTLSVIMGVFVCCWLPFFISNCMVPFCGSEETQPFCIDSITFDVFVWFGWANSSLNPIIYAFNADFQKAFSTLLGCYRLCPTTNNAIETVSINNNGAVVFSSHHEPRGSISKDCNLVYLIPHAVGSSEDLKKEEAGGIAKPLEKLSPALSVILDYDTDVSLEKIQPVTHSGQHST
PKC-null D1DAR, sequence (P18901 whole entry S259A/S397A/S398A/S417A/S421A): as the sequence (P18901 whole entry) above, with S259A, S397A, S398A, S417A, S421A counted along it

Row | SMILES | effect of pretreatment on maximal DA-stimulated cAMP accumulation (WT D1DAR) | effect of pretreatment on maximal DA-stimulated cAMP accumulation (PKC-null D1DAR) | D1DAR phosphorylation above basal [1]
1 | CCCCCCCCCCCCCC(=O)O[C@@H]1[C@@H](C)[C@@]2(O)[C@@H](C=C(CO)C[C@]3(O)C(=O)C(C)=C[C@@H]23)[C@@H]2C(C)(C)[C@]12OC(C)=O [PMA, phorbol 12-myristate 13-acetate] | potentiation of the maximal amount of D1DAR-stimulated cAMP accumulation | potentiation of maximal cAMP accumulation | robust increase in phosphorylation
2 | CCCC(=O)O[C@@H]1[C@@H](C)[C@@]2(O)[C@@H](C=C(CO)C[C@]3(O)C(=O)C(C)=C[C@@H]23)[C@@H]2C(C)(C)[C@]12OC(=O)CCC [PDBu, phorbol 12,13 dibutyrate] |  |  | robust increase in phosphorylation
3 | CCCCCCCCCC(=O)O[C@@H]1[C@@H](C)[C@@]2(O)[C@@H](C=C(CO)C[C@@]3(O)C(=O)C(C)=C[C@@H]23)[C@@H]2C(C)(C)[C@]12OC(=O)CCCCCCCCC [4αPDD, 4α-phorbol-12,13-didecanoate] |  |  | inactive
4 | COc1ccc2c(c1)c(C1=C(c3c[nH]c4ccccc34)C(=O)NC1=O)cn2CCCN(C)C [Gö6983] | potentiation of the maximal amount of D1DAR-stimulated cAMP accumulation | no longer displays an enhancement of cAMP accumulation | 
